# Literature values in patent publication US20020013261A1, “Methods and compositions for promoting angiogenesis using polyethylene glycol (PEG) polymers” (priority 2000, published 2002).
# Test system: vascularization
# Conditions: purified recombinant protein injected into ischemic skeletal muscle tissue, rabbit chronic limb ischemia
substance,measurement,value
basic fibroblast growth factor (bFGF): purified recombinant angiogenic protein,vascularization,modest but significant vascularization
